Patent EP0514935B1, “Novel benzopyran derivatives and processes for the preparation thereof” (KOREA RESEARCH INSTITUTE OF CHEMICAL TECHNOLOGY, priority 1991, dated 1992)
Read-outs that look alike come from different tables or passages of the source. Values belong to the compound of their own block, whether it stands above or below them.

What was measured:
[1] = test system: spontaneously hypertensive rats; assay: Blood pressure-lowering activity, tail-cuff method; assay type: in vivo; conditions: maximum lowering effect on systolic blood pressure
Procedure: The activity of the formula(I) compounds of the present invention was tested by employing the tail-cuff method described in references [see, e.g., I. M. Claxton, M. G. Palfreyman, R. H. Poyster and R. L. Whiting, European Journal of Pharmacology 37, 179(1976)] . After administration of the test compound of formula(I) to sets of spontaneously hypertensive rats, maximum blood pressure-lowering activity was determined by measuring the lowering effect on systolic blood pressure.

[2] = test system: Guinea pig trachea muscle; assay: Relaxation activity on respiratory smooth muscle contracted with histamine; assay type: cell-based; conditions: Cavia porcellus, concentration relaxing 50% of the contraction, read-out: Trachea Relaxation Activity, EC₅₀
Procedure: Further, the relaxation activity on respiratory smooth muscle was determined as follows: Guinea pig trachea muscle was made to be contracted with histamine; and then the test compound of the present invention was administered thereto; and the concentration of the test compound which was required in relaxing 50% level of the contraction was determined and designated as EC₅₀.

[3] = Toxicity test, oral administration, deaths over 48 hours; conditions: rat, in vivo, rats, orally administered; for mortality at 48 h: deaths over 48 hours, read-out: Lethal Rate(%); for LD50 at 48 h: amount of test compound which causes a 50% lethal rate, read-out: LD₅₀
Procedure: Six pairs(each pair consisting of a male and a female) of the rats were used in the test. The number of the rats which died over a period of 48 hours was reported.

EC50 [2]: 50 µM
SMILES: CC1(C2OCCO2)C=C(N2CCCC2=O)c2cc(C#N)ccc2O1 (racemic) [Example 7, 2-(2'' -(1'' ,3'' -dioxolane))-2-methyl-4-(2' -oxo-1' -pyrrolidinyl)-6-cyano-2H-1-benzopyran]
Blood Pressure-Lowering Activity ([1]; Dose 1.0 mg/kg): 41%

EC50 [2]: 17.1 µM
SMILES: CC1(C2OCCO2)C=C(N2CCCC2=O)c2cc(OC(F)(F)F)ccc2O1 (racemic) [Example 9, 2-(2'' -(1'' ,3'' -dioxolane))-2-methyl-4-(2' -oxo-1' -pyrrolidinyl)-6-trifluoromethoxy-2H-1-benzopyran]
Blood Pressure-Lowering Activity ([1]; Dose 0.1 mg/kg): 20.6%

EC50 [2]: 10.9 µM
SMILES: COC(OC)C1(C)C=C(N2CCCC2=O)c2cc(S(=O)(=O)c3ccccc3)ccc2O1 (racemic) [Example 3, 2-dimethoxymethyl-2-methyl-4-(2' -oxo-1' -pyrrolidinyl)-6-phenylsulfonyl-2H-1-benzopyran]
Blood Pressure-Lowering Activity ([1]; Dose 0.1 mg/kg): 6.9%

Second part, the compound before the results:

SMILES: CC1(C)Oc2ccc(C#N)cc2C(N2CCCC2=O)C1O (stereo not drawn) [Cromakalim(-), Cromakalim, reference compound]
Blood Pressure-Lowering Activity ([1]; Dose 0.3 mg/kg): 39%
EC50 [2]: 2.7 µM

SMILES: CC1(C2OCCCO2)C=C(N2CCCC2=O)c2cc([N+](=O)[O-])ccc2O1 (racemic) [Example 11, 2-(2'' -(1'' ,3'' -dioxane))-2-methyl-4-(2' -oxo-1' -pyrrolidinyl)-6-nitro-2H-1-benzopyran]
Blood Pressure-Lowering Activity ([1]; Dose 0.1 mg/kg): 48%
mortality at 48 h ([3]; Dose 10 mg/kg): 0%
mortality at 48 h ([3]; Dose 20 mg/kg): 35%
mortality at 48 h ([3]; Dose 50 mg/kg): 35%
LD50 at 48 h [3]: > 50 mg/kg
EC50 [2]: 50 µM

SMILES: COC(OC)C1(C)C=C(N2CCCC2=O)c2cc(C#N)ccc2O1 (racemic) [Example 1, 2-dimethoxymethyl-2-methyl-4-(2' -oxo-1' -pyrrolidinyl)-6-cyano-2H-1-benzopyran]
Blood Pressure-Lowering Activity ([1]; Dose 0.3 mg/kg): 24%
Blood Pressure-Lowering Activity ([1]; Dose 1.0 mg/kg): 43%
mortality at 48 h ([3]; Dose 10 mg/kg): 0%
mortality at 48 h ([3]; Dose 20 mg/kg): 8%
mortality at 48 h ([3]; Dose 50 mg/kg): 25%
LD50 at 48 h [3]: > 50 mg/kg
EC50 [2]: 150 µM

SMILES: COC(OC)C1(C)C=C(N2CCCC2=O)c2cc(C#N)ccc2O1 (single isomer, unassigned) [16(-), 2-dimethoxymethyl-2-methyl-4-(2' -oxo-1' -pyrrolidinyl)-6-cyano-2H-1-benzopyran]
Blood Pressure-Lowering Activity ([1]; Dose 0.3 mg/kg): 28%
Blood Pressure-Lowering Activity ([1]; Dose 1.0 mg/kg): 55%
EC50 [2]: 140 µM
